According to the supplement of paper PMC10331698:
± gives the standard deviation of the averaged measurements.

Columns and labels:
Assay in all cases: level (log10 ratio to DMSO vehicle control); higher = higher biomarker level / cell amount than vehicle control
[1] = compound: C=CC(F)(F)C(F)(F)C(F)(F)C(F)(F)C(F)(F)C(F)(F)C(F)(F)C(F)(F)C=C [1,8-Divinylperfluorooctane]; details: in DMSO
Experimental: (§1)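 BioMAP Diversity Plus panel of 12 human primary cell co-culture systems (3C, 4H, LPS, SAg, BT, BF4T, BE3C, CASM3C, HDF3CGF, KF3CT, MyoF, Mphg). Compounds were added 1 h before stimulation and left for 24 h (MyoF 48 h; BT 72 h for soluble read-outs or 6 d for IgG). Biomarkers were read by ELISA, cytotoxicity by SRB, PBMC viability and proliferation by Alamar Blue. Each well value was divided by the mean of 8 DMSO control wells on the same plate and log10 transformed; duplicate blinded samples were tested at 4 concentrations.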

[2] = compound: FC(F)(F)C(F)(C(F)(F)F)C(F)(F)C(F)(F)CC1CO1 [3-(Perfluoro-3-methylbutyl)-1,2-propenoxide]; details: in DMSO
Experimental: as §1

[3] = compound: FC(F)C(F)(F)COCC1CO1 [((2,2,3,3-Tetrafluoropropoxy)methyl)oxirane]; details: in DMSO
Experimental: as §1

[4] = compound: O=C(O)C(F)(F)C(F)(F)C(F)F [4H-Perfluorobutanoic acid]; details: in DMSO
Experimental: as §1

[5] = compound: O=C(O)C(F)(F)C(F)(F)OC(F)(F)F [Perfluoro-3-methoxypropanoic acid]; details: in DMSO
Experimental: as §1

[6] = compound: OCCC(F)(F)C(F)(F)C(F)(F)C(F)(F)C(F)(F)C(F)(F)F [6:2 Fluorotelomer alcohol]; details: in DMSO
Experimental: as §1

[7] = compound: OCCCC(F)(F)C(F)(F)C(F)(F)C(F)(F)C(F)(F)C(F)(F)C(F)(F)F [7:3 Fluorotelomer alcohol]; details: 6700 nM; in DMSO
Experimental: as §1

Test System | level (log10) ([1]; 6700 nM) | level (log10) ([1]; 20000 nM) | level (log10) ([2]; 6700 nM) | level (log10) ([2]; 20000 nM) | level (log10) ([3]; 6700 nM) | level (log10) ([3]; 20000 nM) | level (log10) ([3]; 60000 nM) | level (log10) ([4]; 6700 nM) | level (log10) ([4]; 20000 nM) | level (log10) ([4]; 60000 nM) | level (log10) ([5]; 6700 nM) | level (log10) ([5]; 20000 nM) | level (log10) ([5]; 60000 nM) | level (log10) ([6]; 6700 nM) | level (log10) ([6]; 20000 nM) | level (log10) [7]
HDF3CGF:CXCL8/IL-8 | -0.0095 ± 0.0021 | -0.002 ± 0.0085 | 0.001 ± 0.013 | 0.006 ± 0.0028 | -0.0145 ± 0.016 | -0.004 ± 0.0014 | 0.005 ± 0.0085 | 0.001 ± 0.0014 | 0.0025 ± 0.0078 | 0.0095 ± 0.023 | 0.0045 ± 0.0064 | 0.0125 ± 0.0035 | 0.003 ± 0.017 | 0.004 ± 0.0028 | 0.004 | -0.005 ± 0.0042
lMphg:CCL3/MIP-1alpha | -0.019 ± 0.0071 | 0.0065 ± 0.046 | -0.007 ± 0.0042 | 0.0345 ± 0.023 | -0.027 ± 0.059 | -0.0385 ± 0.084 | -0.0025 ± 0.026 | -0.0075 ± 0.037 | 0.004 ± 0.016 | 0.0235 ± 0.011 | -0.0175 ± 0.012 | -0.053 ± 0.0071 | -0.0175 ± 0.019 | -0.0295 ± 0.0064 | -0.0295 ± 0.021 | -0.0155 ± 0.019
CASM3C:M-CSF | -0.0375 ± 0.011 | -0.0235 ± 0.023 | -0.0175 ± 0.0021 | 0.008 ± 0.042 | -0.0115 ± 0.021 | -0.029 ± 0.0014 | -0.0025 ± 0.084 | 0.004 ± 0.045 | -0.009 ± 0.016 | 0.059 ± 0.027 | -0.001 ± 0.011 | -0.001 ± 0.03 | 0.031 ± 0.0071 | -0.018 ± 0.0014 | 0.019 ± 0.016 | 0.007 ± 0.0042
HDF3CGF:CD54/ICAM-1 | 0.003 ± 0.028 | 0.0475 ± 0.028 | -0.013 ± 0.021 | -0.014 ± 0.041 | 0.001 ± 0.013 | 0.006 ± 0.0014 | -0.007 ± 0.018 | 0.009 ± 0.021 | 0.013 ± 0.0099 | 0.0035 ± 0.005 | -0.017 ± 0.0028 | -0.0025 ± 0.005 | -0.0055 ± 0.00071 | -0.01 ± 0.0071 | -0.0075 ± 0.0064 | -0.024 ± 0.0085
MyoF:Decorin | 0.0075 ± 0.013 | 0.0335 ± 0.022 | 0.0025 ± 0.029 | 0.026 ± 0.042 | -0.0065 ± 0.0035 | -0.007 ± 0.0071 | 0.0075 ± 0.012 | -0.005 ± 0.048 | 0.003 ± 0.064 | 0.0655 ± 0.088 | 0.005 ± 0.017 | 0.0085 ± 0.0078 | 0.0085 ± 0.03 | -0.0055 ± 0.0021 | 0.0085 ± 0.011 | 0.0355 ± 0.059
HDF3CGF:CXCL9/MIG | 0.006 ± 0.0057 | -0.001 ± 0.024 | 0.0165 ± 0.012 | 0.0155 ± 0.016 | -0.001 ± 0.013 | 0.0115 ± 0.023 | -0.009 ± 0.028 | -0.0015 ± 0.033 | -0.0035 ± 0.025 | -0.0125 ± 0.028 | -0.016 ± 0.016 | 0.0155 ± 0.019 | 0.019 ± 0.0014 | -0.0015 ± 0.023 | 0.001 ± 0.0028 | -0.0225 ± 0.018
HDF3CGF:MMP-1 | -0.0035 ± 0.005 | 0.0165 ± 0.012 | 0.0095 ± 0.012 | -0.008 ± 0.024 | 0.0085 ± 0.012 | 0.0175 ± 0.0064 | 0.0125 ± 0.023 | 0.0005 ± 0.0021 | -0.0025 ± 0.0035 | 0.0075 ± 0.021 | -0.01 ± 0.011 | 0 ± 0.0071 | -0.0035 ± 0.021 | -0.0025 ± 0.00071 | 0.0015 ± 0.00071 | -0.034 ± 0.021
HDF3CGF:SRB | 0.025 ± 0.051 | 0.069 ± 0.14 | 0.0005 ± 0.057 | 0.0145 ± 0.06 | 0.004 ± 0.0057 | -0.002 ± 0.02 | -0.011 ± 0.1 | -0.0125 ± 0.06 | -0.0095 ± 0.0035 | 0.0155 ± 0.022 | -0.0005 ± 0.042 | 0.014 ± 0.0071 | 0 ± 0.023 | -0.0245 ± 0.073 | 0.008 ± 0.054 | -0.014 ± 0.027
BE3C:SRB | -0.0005 ± 0.00071 | 0 ± 0.0014 | -0.0005 ± 0.00071 | 0.0015 ± 0.0021 | -0.0015 ± 0.005 | -0.001 ± 0.0014 | 0.0085 ± 0.023 | -0.003 ± 0.0014 | -0.004 ± 0.0099 | 0.0025 ± 0.0021 | -0.001 | -0.004 ± 0.0014 | 0.004 ± 0.018 | -0.0025 ± 0.0021 | -0.0045 ± 0.0021 | -0.0065 ± 0.0092
